Three molecules from patent publication US9980943B2, “Methods of treating muscular dystrophy” (BOARD OF REGENTS OF THE NEVADA SYSTEM OF HIGHER EDUCATION, …, priority 2013, dated 2018) can be followed below.

Each structure is given as a SMILES string.

Holding throughout (type): cell-based, mouse
Assay [1] relates to α7 integrin (LacZ reporter in α7βgal+/− myoblasts). The assay is described as follows: Myoblast α7+/LacZ integrin FDG assay (Burkin assay in myoblasts, 96-well). The settings on record: α7+/LacZ myoblasts, 96-well.
In assay [2] the test system is α7 integrin (LacZ reporter in α7+/LacZ myotubes). The assay is described as follows: Myotube α7 integrin FDG assay (Burkin assay in myotubes, 96-well). The settings on record: myotubes.
In assay [3] the test system is β-galactosidase in CMV-LacZ C2C12 myotubes. The assay is described as follows: CMV-LacZ secondary screen in C2C12 myotubes (β-Gal stabilizing assay). The settings on record: for CMV-LACZ in Myotubes (β-galactosidase activity relative to DMSO): CMV-LacZ C2C12 myotubes, 96-well format; for CMV-LACZ in Myotubes, signal relative to DMSO: C2C12 CMV-LacZ myotubes, fold relative to DMSO. The essentials: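 β-Gal level was the read-out, measured in a clonal C2C12 line expressing LacZ from a CMV promoter. Dose-response curves used six concentrations, 0.5 μM up to 40 μM, with duplicate points.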

`O=C(COC(=O)c1cc2ccccc2oc1=O)Nc1ccc(F)cc1F` [MLS000516719-01]: the “Burkin Assay in Myoblasts, value relative to DMSO” value in assay [1] (0.5 uM) came to 1.006; in assay [1] (1 uM), 1.048; in assay [1] (5 uM), 1.0321; in assay [1] (10 uM), 1.068; in assay [1] (20 uM), 0.9197; in assay [1] (40 uM) it was 0.9651. The “Burkin Assay in Myotubes (signal relative to DMSO)” value in assay [2] (0.5 uM) stood at 0.8618; in assay [2] (1 uM), 1.0239; in assay [2] (5 uM), 1.203; in assay [2] (10 uM) it was 1.184; in assay [2] (20 uM) it was 1.107; in assay [2] (40 uM) it was 1.175. The “CMV-LACZ in Myotubes (β-galactosidase activity relative to DMSO)” value was 0.8894 in assay [3] (5 uM), 1.114 in assay [3] (10 uM), 1.103 in assay [3] (20 uM) and 1.072 in assay [3] (40 uM).
As to `COc1ccc(S(=O)(=O)Nc2ccc(S(=O)(=O)Nc3nccs3)cc2)cc1` [MLS001218795-01], the “Burkin Assay in Myoblasts, signal relative to DMSO” value in assay [1] (0.5 uM) came out at 1.024; in assay [1] (1 uM), 0.9596; in assay [1] (5 uM), 0.8609; in assay [1] (10 uM), 0.9116; in assay [1] (20 uM), 0.9353; in assay [1] (40 uM), 0.9876. The “Burkin Assay in Myotubes, α7 integrin LacZ reporter signal relative to DMSO” value was 0.9648 in assay [2] (0.5 uM); 0.9363 in assay [2] (1 uM); 0.9778 in assay [2] (5 uM); 0.9991 in assay [2] (10 uM); 0.9463 in assay [2] (20 uM); 0.9606 in assay [2] (40 uM). Moreover, the “CMV-LACZ in Myotubes, signal relative to DMSO” value in assay [3] (5 uM) was determined as 0.9553; in assay [3] (10 uM), 1.023; in assay [3] (20 uM), 1.2115; in assay [3] (40 uM) it was 0.989.
In the case of `S=c1[nH]nc(Cn2cnc3ccccc32)n1-c1ccccc1` [MLS000707281-01], the “Burkin Assay in Myoblasts, value relative to DMSO” value in assay [1] (0.5 uM) is 0.9507; in assay [1] (1 uM) it was 0.9756; in assay [1] (5 uM), 0.8935; in assay [1] (10 uM), 0.8854; in assay [1] (20 uM), 0.8359; in assay [1] (40 uM) it was 0.7969. For the same molecule, the “Burkin Assay in Myotubes (signal relative to DMSO)” value is listed as 1.011 in assay [2] (0.5 uM); 0.6537 in assay [2] (1 uM); 1.059 in assay [2] (5 uM); 0.7505 in assay [2] (10 uM); 1.156 in assay [2] (20 uM); 1.141 in assay [2] (40 uM). The “CMV-LACZ in Myotubes (β-galactosidase activity relative to DMSO)” value in assay [3] (5 uM) is listed as 0.8706; in assay [3] (10 uM) it was 0.9255; in assay [3] (20 uM), 0.9474; in assay [3] (40 uM) it was 0.9526.
